Experimental data reported in article PMC3610763 (Chemical research in toxicology, 2012).

Legend:
[1] = in vivo, cited from earlier work
[2] = human, in vivo, po; cited from earlier work
[3] = rat, in vivo, po, 30 mg/kg; cited from earlier work
[4] = system: individual recombinant human P450 enzymes

COc1cc(CNC(=O)CCCC/C=C/C(C)C)ccc1O [Capsaicin, trans-8-methyl-N-vanillyl-6-nonenamide]
estimated T1/2 ([1]; human): 1.6 h | time within which capsaicin was cleared in most patients [1]: ≤ 4.5 h | AUC [2]: ~ 1.7 ng*h/mL | T1/2 [2]: 0.42 h | Tmax [2]: ~ 0.78 h | absorption from the intestine [3]: 94% | amount found in intestine [3]: ~ 1,060 mg/tissue | amount found in kidney [3]: ~ 7 mg/tissue | amount found in liver [3]: ~ 45 mg/tissue | peak serum concentration [3]: 6.2 µM

COc1cc(CNC(=O)CCCC/C=C/C(C)C)cc(-c2cc(CNC(=O)CCCC/C=C/C(C)C)cc(OC)c2O)c1O [Dimer, 5,5’-Dicapsaicin]
P450 enzymes producing the conjugate/dimer from capsaicin [4]: CYP2D6, 2C9, and 2C8

CCCCCCCCC(=O)NCc1ccc(O)c(O)c1 [N-(3,4-dihydroxybenzyl)nonanamide]
formation of G3 from the analogue, versus capsaicin (human liver microsomes): absent

CCCCCCCCC(=O)NCc1ccc(OC)c(OC)c1 [N-(3,4-dimethoxybenzyl)nonanamide]
formation of G3 from the analogue, versus capsaicin (human liver microsomes): absent | formation of conjugates equivalent to G1/G2 from the analogue, versus capsaicin (human liver microsomes): diminished

CCCCCCCCC(=O)NCc1ccc(OC)c(O)c1 [N-(3-hydroxy-4-methoxybenzyl)nonanamide]
formation of G3 from the analogue, versus capsaicin (human liver microsomes): absent | formation of conjugates equivalent to G1/G2 from the analogue, versus capsaicin (human liver microsomes): unchanged

CCCCCCCCC(=O)NCc1cccc(OC)c1 [N-(3-methoxybenzyl)nonanamide]
formation of G3 from the analogue, versus capsaicin (human liver microsomes): absent | formation of conjugates equivalent to G1/G2 from the analogue, versus capsaicin (human liver microsomes): diminished

CCCCCCCCC(=O)NCc1ccc(O)cc1 [N-(4-hydroxybenzyl)nonanamide]
formation of G3 from the analogue, versus capsaicin (human liver microsomes): greater | formation of conjugates equivalent to G1/G2 from the analogue, versus capsaicin (human liver microsomes): increased

CCCCCCCCC(=O)NCc1ccccc1 [N-benzylnonanamide]
formation of G3 from the analogue, versus capsaicin (human liver microsomes): absent | formation of conjugates equivalent to G1/G2 from the analogue, versus capsaicin (human liver microsomes): diminished

CCCCCCCCC(=O)NCc1ccc(O)c(OC)c1 [nonivamide, N-vanillylnonanamide]
G4 and G5 formation from the analogue (human liver microsomes): roughly equivalent to capsaicin | formation of G3 from the analogue, versus capsaicin (human liver microsomes): comparable to capsaicin | formation of conjugates equivalent to G1/G2 from the analogue, versus capsaicin (human liver microsomes): unchanged
